Experiment [1] has as its target T1, Muscarinic acetylcholine receptor M1 (Homo sapiens, UniProt P11229).
T1 sequence (P11229 whole entry): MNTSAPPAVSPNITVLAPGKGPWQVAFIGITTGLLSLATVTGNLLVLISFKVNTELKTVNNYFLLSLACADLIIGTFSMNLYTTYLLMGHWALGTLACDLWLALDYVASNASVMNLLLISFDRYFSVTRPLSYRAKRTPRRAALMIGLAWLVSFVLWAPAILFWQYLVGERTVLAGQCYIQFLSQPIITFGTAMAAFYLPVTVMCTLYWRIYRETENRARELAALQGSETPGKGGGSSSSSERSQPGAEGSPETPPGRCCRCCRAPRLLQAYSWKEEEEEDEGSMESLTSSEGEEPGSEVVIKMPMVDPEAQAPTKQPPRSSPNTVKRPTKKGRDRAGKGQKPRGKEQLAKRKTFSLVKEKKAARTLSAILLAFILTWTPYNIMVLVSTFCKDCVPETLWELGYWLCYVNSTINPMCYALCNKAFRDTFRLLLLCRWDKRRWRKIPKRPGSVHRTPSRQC

Experiment [2] addresses 5-hydroxytryptamine receptor 2B (Homo sapiens, UniProt P41595).
For a further experiment, the target named is T2, B1 bradykinin receptor (Homo sapiens, UniProt P46663).
T2 sequence (P46663 whole entry): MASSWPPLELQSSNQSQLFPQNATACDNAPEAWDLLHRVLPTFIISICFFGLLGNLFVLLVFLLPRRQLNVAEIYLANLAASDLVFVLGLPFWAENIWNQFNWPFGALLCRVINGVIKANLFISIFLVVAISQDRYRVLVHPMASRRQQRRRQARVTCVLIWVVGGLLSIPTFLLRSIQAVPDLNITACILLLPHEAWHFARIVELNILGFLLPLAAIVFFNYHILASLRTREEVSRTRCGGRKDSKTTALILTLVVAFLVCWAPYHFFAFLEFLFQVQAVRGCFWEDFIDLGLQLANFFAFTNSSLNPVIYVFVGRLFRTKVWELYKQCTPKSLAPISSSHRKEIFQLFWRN

In a further experiment the target is T3, D(4) dopamine receptor (Homo sapiens, UniProt P21917).
T3 sequence (P21917 whole entry): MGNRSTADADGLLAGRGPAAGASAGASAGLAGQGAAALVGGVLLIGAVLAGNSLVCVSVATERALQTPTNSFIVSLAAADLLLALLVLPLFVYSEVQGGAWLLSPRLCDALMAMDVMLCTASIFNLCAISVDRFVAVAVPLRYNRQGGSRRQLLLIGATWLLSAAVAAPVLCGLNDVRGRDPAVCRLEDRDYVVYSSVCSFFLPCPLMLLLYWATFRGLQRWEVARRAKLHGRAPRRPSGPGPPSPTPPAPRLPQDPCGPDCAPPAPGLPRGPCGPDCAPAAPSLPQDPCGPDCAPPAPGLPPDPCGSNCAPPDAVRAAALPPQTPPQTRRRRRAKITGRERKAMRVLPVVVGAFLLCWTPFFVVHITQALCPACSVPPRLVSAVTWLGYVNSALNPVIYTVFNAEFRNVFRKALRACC

Experiment [3] addresses T4, Alpha-1A adrenergic receptor (Homo sapiens, UniProt P35348).
T4 sequence (P35348 whole entry): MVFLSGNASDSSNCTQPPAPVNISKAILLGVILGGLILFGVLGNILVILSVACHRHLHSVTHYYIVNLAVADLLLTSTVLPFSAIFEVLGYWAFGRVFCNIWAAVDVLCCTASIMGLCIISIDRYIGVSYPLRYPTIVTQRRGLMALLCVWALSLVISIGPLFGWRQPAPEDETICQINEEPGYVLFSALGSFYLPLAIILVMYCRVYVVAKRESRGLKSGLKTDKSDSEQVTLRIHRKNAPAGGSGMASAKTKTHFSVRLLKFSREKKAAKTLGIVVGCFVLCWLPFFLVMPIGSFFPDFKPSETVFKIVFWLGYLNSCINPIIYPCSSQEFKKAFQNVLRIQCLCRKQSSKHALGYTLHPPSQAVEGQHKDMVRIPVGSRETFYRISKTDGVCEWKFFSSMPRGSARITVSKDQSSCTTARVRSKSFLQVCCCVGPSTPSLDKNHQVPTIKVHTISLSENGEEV

The target in experiment [4] is T5, Endothelin receptor type B (Homo sapiens, UniProt P24530).
T5 sequence (P24530 whole entry): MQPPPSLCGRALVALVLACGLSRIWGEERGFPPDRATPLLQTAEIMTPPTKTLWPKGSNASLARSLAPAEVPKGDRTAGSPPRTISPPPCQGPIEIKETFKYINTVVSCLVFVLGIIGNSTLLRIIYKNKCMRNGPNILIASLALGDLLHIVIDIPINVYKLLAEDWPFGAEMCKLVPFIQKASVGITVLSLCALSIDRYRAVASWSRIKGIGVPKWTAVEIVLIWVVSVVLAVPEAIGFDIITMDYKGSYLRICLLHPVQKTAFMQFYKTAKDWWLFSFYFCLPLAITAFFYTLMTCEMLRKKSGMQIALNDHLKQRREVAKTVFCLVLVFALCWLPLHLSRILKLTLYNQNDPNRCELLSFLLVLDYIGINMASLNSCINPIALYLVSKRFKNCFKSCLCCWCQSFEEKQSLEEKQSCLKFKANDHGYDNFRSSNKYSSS

We go through 13 compounds from ChEMBL document CHEMBL5291721, “A preclinical secondary pharmacology resource illuminates target-adverse drug reaction associations of marketed drugs” (Nat Commun, 2023).

A value given as a limit tells only on which side of the number the result lay.
Also: assay procedure not described here.

Sequence of 5-hydroxytryptamine receptor 2B (P41595 whole entry): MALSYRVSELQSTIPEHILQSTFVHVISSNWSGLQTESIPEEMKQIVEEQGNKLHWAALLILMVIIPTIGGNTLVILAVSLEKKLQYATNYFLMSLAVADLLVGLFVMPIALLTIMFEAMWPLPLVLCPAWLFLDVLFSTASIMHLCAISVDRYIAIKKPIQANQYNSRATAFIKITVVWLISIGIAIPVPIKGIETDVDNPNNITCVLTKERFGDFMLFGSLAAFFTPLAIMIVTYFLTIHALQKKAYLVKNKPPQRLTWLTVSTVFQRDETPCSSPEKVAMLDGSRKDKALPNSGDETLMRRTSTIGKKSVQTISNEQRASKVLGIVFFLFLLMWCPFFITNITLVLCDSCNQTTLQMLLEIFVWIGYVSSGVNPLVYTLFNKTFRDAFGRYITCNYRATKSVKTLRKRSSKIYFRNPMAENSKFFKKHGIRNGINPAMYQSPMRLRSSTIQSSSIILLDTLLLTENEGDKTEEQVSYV

By AC50 is commonly meant the concentration at which the activity in the assay is half-maximal. High values mean weaker potency, low ones greater potency. `CCCCCCCC(=O)N[C@H](CN1CCCC1)[C@H](O)c1ccc2c(c1)OCCO2` yielded an AC50 in experiment [1] of over 30 µM.
Consider `C[C@]1(COc2ccc(N3CCC(Oc4ccc(OC(F)(F)F)cc4)CC3)cc2)Cn2cc([N+](=O)[O-])nc2O1`, for which the AC50 is over 10 µM in experiment [2]; over 30 µM at B1 bradykinin receptor; over 10 µM on D(4) dopamine receptor; over 10 µM in experiment [3]; over 30 µM in experiment [4].
For `CC(=O)OCC[N+](C)(C)C` [ACETYLCHOLINE], the AC50 was over 10 µM in experiment [2]; over 30 µM at B1 bradykinin receptor; over 10 µM on D(4) dopamine receptor; over 10 µM in experiment [3]; over 30 µM in experiment [4].
Regarding `O=C(Nc1nc(-c2cc(Cl)cs2)c(N2CCN(C3CCCCC3)CC2)s1)c1cnc(N2CCC(C(=O)O)CC2)c(Cl)c1` [AVATROMBOPAG], the AC50 in experiment [2] is over 10 µM; in experiment [1] it was over 30 µM; at B1 bradykinin receptor, over 10 µM; on D(4) dopamine receptor it was over 10 µM; in experiment [3], over 10 µM; in experiment [4] it was over 10 µM.
As to `C[C@H]1C[C@H]2[C@@H]3CCC4=CC(=O)C=C[C@]4(C)[C@@]3(Cl)[C@@H](O)C[C@]2(C)[C@@]1(O)C(=O)CO` [BECLOMETHASONE], the AC50 in experiment [2] was over 10 µM; at B1 bradykinin receptor, over 30 µM; at D(4) dopamine receptor it was over 10 µM; in experiment [3], over 10 µM; in experiment [4] it was over 30 µM.
The compound `Oc1c(I)cc(Cl)c2cccnc12` [CLIOQUINOL] showed an AC50 in experiment [1] of over 30 µM.
On to `COc1ccc2c(c1)[C@]13CCCC[C@@H]1[C@H](C2)N(C)CC3` [DEXTROMETHORPHAN], for which the AC50 is 5.8 µM in experiment [2]; over 30 µM at B1 bradykinin receptor; over 10 µM at D(4) dopamine receptor; 5.22 µM in experiment [3]; over 30 µM in experiment [4].
Consider `CCn1cc(C(=O)O)c(=O)c2cc(F)c(N3CCNCC3)nc21` [ENOXACIN], for which the AC50 in experiment [2] is over 10 µM; at B1 bradykinin receptor, over 30 µM; on D(4) dopamine receptor, over 10 µM; in experiment [3], over 10 µM; in experiment [4], over 30 µM.
Turning to `CCC(=O)O[C@@H]1CC(=O)O[C@H](C)C/C=C/C=C/[C@H](OC(C)=O)[C@H](C)C[C@H](CC=O)[C@H](O[C@@H]2O[C@H](C)[C@@H](O[C@H]3C[C@@](C)(OC(C)=O)[C@@H](OC(=O)CC)[C@H](C)O3)[C@H](N(C)C)[C@H]2O)[C@H]1OC` [MIOCAMYCIN], the AC50 in experiment [1] was over 30 µM.
Compound `C1CNCCN1` [PIPERAZINE] returned an AC50 in experiment [1] of over 30 µM.
Turning to `COCCCOc1ccnc(C[S+]([O-])c2nc3ccccc3[nH]2)c1C` (configuration not stated) [RABEPRAZOLE], the concentration at half-maximal activity (AC50) in experiment [2] is over 10 µM; at B1 bradykinin receptor it was over 30 µM; on D(4) dopamine receptor it was over 10 µM; in experiment [3], 4.98 µM; in experiment [4], over 30 µM.
In the case of `O=C(CCCN1CCC2(CC1)C(=O)NCN2c1ccccc1)c1ccc(F)cc1` [SPIPERONE], in experiment [2], the activity was half-maximal at 0.66 µM (AC50).
Same read-out and setting: with `OCCN1CCN(CC/C=C2/c3ccccc3Sc3ccc(Cl)cc32)CC1` [ZUCLOPENTHIXOL] the figure was 0.0144 µM.
